In patent US8183215B2, “Method of administering oral flora-improving agent, antibacterial agent and growth promoter” (Megmilk Snow Brand Co., Ltd., priority 2004, dated 2012):
Bridge positions count the residues as written; N and C are the ends. Square brackets hold non-standard residues; d marks the D form. Peptide text beside a SMILES is read from it. * marks the point of attachment. Ileψ(thiazoline)Cys = CC[C@H](C)[C@H](N)C1=N[C@H](C(=O)*)CS1; dOrn = NCCC[C@@H](N)C(=O)O

How the values were obtained:
Experiment in all cases: Radial Diffusion Assay, antibacterial / growth promoting activity
Assay type in all cases: cell-based
[1] = test system: Streptococcus mitis GTC945; conditions: 5 μl sample in hole, zone measured after 18 hours at 37° C.
Description: (§1) The influences of gangliosides on oral bacteria were examined by Radial Diffusion Assay. That is, 3 mg of Tryptic Soy medium (Difco), 20 μl of Tween 20, and 100 mg of agarose were dissolved in 10 ml of ultrapure water and sterilized. 100 μl of solution of bacteria having an OD620 of 0.2 (5×10^7 cfu/ml) was added to the sterilized medium, and then the resultant mixture was dispensed in Petri dishes and allowed to solidify at room temperature. Each solidified medium was provided with a hole of about 2.5 mm in diameter and 5 μl of each solution of ganglioside GM3 or ganglioside GD3 derived from milk for the evaluation of the antibacterial effect was added to the hole and incubated at 37° C. for 1 hour. Further, a sterilized medium obtained by dissolving 0.6 g of Tryptic Soy medium and 100 mg of agarose in 10 ml of ultrapure water was superposed on the solidified medium and left to solidify at room temperature, and then stationary cultured in an incubator at 37° C. After 18 hours, the diameter of a clear zone formed around the hole formed in the medium was measured. A length obtained by subtracting the diameter (mm) of the hole formed in the medium from the diameter (mm) of a clear zone formed by inhibition of the growth of the bacterium was defined as antibacterial activity. On the other hand, when colonies of the bacterium were formed around the hole in the medium and an opaque zone was observed, it was assumed that growth promotion took place, and a length obtained by subtracting the diameter (mm) of the hole formed in the medium from the diameter (mm) of an opaque zone was defined as growth promotion activity. The bacterial strains subjected to the test include Streptococcus sobrinus 6715 strain, Streptococcus anginosus ATCC33397 strain, and Staphylococcus aureus Cowan I strain as harmful oral bacteria; Streptococcus agalactiae ATCC46448 strain and Actinomyces naeslundii JCM8349 strain as habitant oral bacteria; and Streptococcus mitis GTC495 strain, Streptococcus mitis ATCC6249 strain, and Streptococcus mitis ATCC903 strain as useful oral bacteria.
(§2) Bacitracin, which is an antibacterial component separated from Bacillus subtilis, was used as a positive control and a sample showing an antibacterial activity of 2.0 mm or more was judged to be positive (having an antibacterial activity). As for the growth promoting effect, a sample having a growth promoting activity of 1.0 mm or more was judged to be positive (having a growth promoting activity).

[2] = test system: Streptococcus mitis ATCC6249 strain; conditions: 5 μl sample in hole, zone measured after 18 hours at 37° C.
Description: as §1, §2

[3] = test system: Streptococcus mitis ATCC903 strain; conditions: 5 μl sample in hole, zone measured after 18 hours at 37° C.
Description: as §1, §2

[4] = test system: Streptococcus anginosus ATCC33397 strain; conditions: 5 μl sample in hole, zone measured after 18 hours at 37° C.
Description: as §1, §2

[5] = test system: Streptococcus agalactiae ATCC46448 strain; conditions: for antibacterial activity / growth promoting activity: Streptococcus agalactiae ATCC46448, 5 μl sample in hole, zone measured after 18 hours at 37° C.; for antibacterial and growth promoting activity, result in words: Streptococcus agalactiae ATCC46448 strain
Description: as §1, §2

[6] = test system: Staphylococcus aureus Cowan I strain; conditions: 5 μl sample in hole, zone measured after 18 hours at 37° C.
Description: as §1, §2

[7] = test system: Actinomyces naeslundii JCM8349 strain; conditions: for antibacterial activity / growth promoting activity: Actinomyces naeslundii JCM8349, 5 μl sample in hole, zone measured after 18 hours at 37° C.; for antibacterial and growth promoting activity, result in words: Actinomyces naeslundii JCM8349 strain
Description: as §1, §2

[8] = test system: Streptococcus sobrinus 6715 strain; conditions: 5 μl sample in hole, zone measured after 18 hours at 37° C.
Description: as §1, §2

Compound	antibacterial activity / growth promoting activity [1]	antibacterial activity / growth promoting activity [2]	antibacterial activity / growth promoting activity [3]	antibacterial activity / growth promoting activity [4]	antibacterial activity / growth promoting activity [5]	antibacterial activity / growth promoting activity [6]	antibacterial activity / growth promoting activity [7]	antibacterial activity / growth promoting activity [8]	antibacterial and growth promoting activity, result in words [5]	antibacterial and growth promoting activity, result in words [7]
CC[C@H](C)[C@H](N)C1=N[C@H](C(=O)N[C@@H](CC(C)C)C(=O)N[C@H](CCC(=O)O)C(=O)N[C@H](C(=O)N[C@H]2CCCCNC(=O)[C@H](CC(N)=O)NC(=O)[C@@H](CC(=O)O)NC(=O)[C@H](Cc3cnc[nH]3)NC(=O)[C@@H](Cc3ccccc3)NC(=O)[C@H]([C@@H](C)CC)NC(=O)[C@@H](CCCN)NC2=O)[C@@H](C)CC)CS1 [Bacitracin, reference compound] ({Ileψ(thiazoline)Cys}-L[dE]IK[dOrn]I[dF]H[dD]N; lactam 4-C)	+ (Having an antibacterial activity)	+ (Having an antibacterial activity)	+ (Having an antibacterial activity)	+ (Having an antibacterial activity)	+ (Having an antibacterial activity)	+ (Having an antibacterial activity)	+ (Having an antibacterial activity)	+ (Having an antibacterial activity)		
ganglioside GM3	* (Having a growth promoting activity)	* (Having a growth promoting activity)	* (Having a growth promoting activity)	+ (Having an antibacterial activity)	− (Having no antibacterial activity)	+ (Having an antibacterial activity)	− (Having no antibacterial activity)	+ (Having an antibacterial activity)	neither an antibacterial activity nor a growth promoting activity	neither an antibacterial activity nor a growth promoting activity
ganglioside GD3	* (Having a growth promoting activity)	* (Having a growth promoting activity)	* (Having a growth promoting activity)	+ (Having an antibacterial activity)	− (Having no antibacterial activity)	+ (Having an antibacterial activity)	− (Having no antibacterial activity)	+ (Having an antibacterial activity)	neither an antibacterial activity nor a growth promoting activity	neither an antibacterial activity nor a growth promoting activity
